How the values were obtained:
[1] = test system: A. fumigatus conidia; assay: Resazurin-based fungal viability assay; set-up: species or system Aspergillus fumigatus; conditions: for microbicidal activity: 1 min, conidia pre-opsonised with human SAP
Procedure: FIG. 12 depicts the therapeutic efficacy of SAP in treatment of invasive aspergillosis. a) b) c) survival of transiently immunosuppressed wt mice after injection with the indicated doses of AF conidia. The curve of untreated mice (n=3) with cyclophosphamide is also shown (a). Human SAP (4 mg/Kg) was injected at 2 h and 24 h after infection. a) AF 5.10^7, n=17; AF 5.10^7+SAP, n=15; b) AF 1.10^7, n=7; AF 1.10^7+SAP, n=8; c) AF 5.10^6, n=8; AF 5.10^6+SAP, n=10.***, P<0.005 SAP-treated vs. saline (Mantel-Cox test). One-way ANOVA, P<0.0001. d) lung CFU in mice treated with cyclophosphamide and infected with 1.10^7 AF conidia.*, P<0.05 (Mann-Whitney test). e) quantitative analysis of AF viability performed using a resazurin-based assay. Plasma (30%) from wt and Apcs^−/− mice were incubated (1 min) with 1.5×10^5 AF conidia pre-opsonized or not with SAP. Results are mean±SD of red fluorescence (excitation/emission 535/580-610 nm) intensity of the resazurin once reduced to resorufin within viable cells. Effect of Posaconazole (POC; 1 μM) exposure is also shown. Results are mean±SEM relative to the condition without serum (grey symbols) of two experiments performed with n=10 mice/group. […] AF viability assay performed in sera depleted from complement components. Figure summarizes one experiment out of 5 also conducted with serum 10%. Mean±SD.*, P<0.05; **, P<0.01 (unpaired t-test). g) and h) FACS analysis of MAC deposition on AF conidia (1×10^7) in presence of sera depleted from complement components (e) and the effect of SAP (f). Mean±SEM of 2 experiments performed out of 4. e, f,*, P<0.05;**, P<0.01;***, P<0.005;****, P<0.001; (Mann-Whitney test).
Fungal viability assay. Effect of SAP on A. fumigatus killing was evaluated by a resazurin-based cell viability assay as described (Mantovani et al., 2010). A volume of 10 μl PBS, pH 7.4, containing 1.5×10^5 conidia eventually opsonized with human SAP (100 μg/ml per 1×10^9 conidia, 1 h at r.t.) was placed into sterile round bottom Corning® 96-well polypropylene microplate and incubated for 1 and 30 min at 37° C. with 20 μl of 10 and 30% plasma-heparin from wt and Apcs^−/− mice or human serum and different complement component-depleted sera. After incubation, plates were immediately cooled on ice and cold-centrifuged (2000 rpm, 10 min at 4° C.), and then supernatant removed. Conidia not incubated with plasma or serum were used as a negative control. Conidia treated with the fungicide drug Posaconazole (POC; 1 μM) were considered as positive control in the assay. […] After 17 h reaction at 37° C., fluorescence (excitation/emission at ≈530-560/590 nm) intensity was measured by microplate reader Synergy™ H4 (BioTek, France). Results represent ratio of fluorescence intensity values relative to those measured in negative controls. […]

[2] = test system: A. fumigatus; assay: Inflammatory response in BALFs after i.t. injection of Sap-opsonised conidia; assay type: in vivo; conditions: Apcs−/− mice, 16 h
Procedure: FIG. 5 depicts the rescue of susceptibility to A. fumigatus in SAP-deficient mice. a) b) c) d) i.t. injection of non-opsonised or Sap-opsonised AF conidia. a) survival of wt and Apcs^−/− mice. Wt, n=10; wt+Sap, n=10; Apcs^−/−, n=14; Apcs^−/−+Sap, n=13.****, P<0.0001, wt vs. Apcs^−/− or Apcs^−/− vs. Apcs^−/−+Sap (Mantel-Cox test). b) and c) levels of TNF-α (b) and MPO (c) in BALFs of mice (16 h). b),****, P<0.0001;**, P<0.01. c),***, P<0.0005. d, FACS analysis of neutrophil recruitment in lung (16 h). Mean±SEM.****, P<0.0001;*, P<0.05. b), c), d), Mean±SEM; Mann-Whitney test.
BALFs collection and analysis. BALFs were performed with 1.5 ml PBS, pH 7.4, containing protease inhibitors (Complete tablets, Roche Diagnostic; PMSF, Sigma-Aldrich) and 10 mM EDTA (Sigma-Aldrich) with a 22-gauge venous catheter. BALFs were centrifuged, and supernatants were collected for quantification of total protein content with Bradford's assay (Bio-RAD) and cytokines as described below. After erythrocyte lysis with ACK solution (pH 7.2; NH4Cl 0.15 M, KHCO3 10 mM, EDTA 0.1 mM), cells were resuspended in PBS, pH 7.4, containing 10 mM EDTA and 1% heat-inactivated fetal bovine serum (FCS; Sigma-Aldrich), stained with live and death dye (ThermoFisher Scientific-Molecular Probes) and analysed by BD FACS Canto™ II Flow Cytometer (BD Biosciences) with the following specific antibodies: peridinin chlorophyll protein complex (PerCP)—or brilliant violet (BV) 650-labelled anti-CD45 (#30-F11, IgG2b; 4 μg/ml); FITC- or phycoerythrin (PE)-CF594-labelled anti-Ly6G (#1A8, IgG2a; 4 μg/ml); allophycocyanin (APC)—or BV421-labelled anti-CD11b (#M 1/70, RUO, IgG2b; 1 μg/ml) (all from BD Biosciences).
Proteins. A recombinant murine SAP from mouse myeloma cell line NSO was used (R&D Systems). Native SAP from human serum was purchased by Merck-Millipore. […] Purity of the recombinant protein was assessed by SDS-PAGE followed by silver staining. […] SAP levels were measured in mouse plasma by ELISA (DuoSet ELISA; R&D Systems). Murine TNF-α, CCL2, MPO were measured by ELISA (DuoSet ELISA; R&D Systems). […]

Molecule: human native SAP: Native SAP from human serum purchased by Merck-Millipore; Serum Amyloid P component, SEQ ID NO: 1
- microbicidal activity ([1]; Apcs−/− mouse plasma): increase of microbicidal activity
- SAP effect on microbicidal activity ([1]; human serum depleted of C1q): abolished
- SAP effect on microbicidal activity ([1]; human serum depleted of C3): abolished
- microbicidal activity ([1]; wt mouse plasma): increase of microbicidal activity

B1: recombinant murine SAP: recombinant murine SAP from mouse myeloma cell line NSO (R&D Systems) (protein, UniProt P12246 21-224, looked up)
Serum amyloid P-component: QTDLKRKVFVFPRESETDHVKLIPHLEKPLQNFTLCFRTYSDLSRSQSLFSYSVKGRDNELLIYKEKVGEYSLYIGQSKVTVRGMEEYLSPVHLCTTWESSSGIVEFWVNGKPWVKKSLQREYTVKAPPSIVLGQEQDNYGGGFQRSQSFVGEFSDLYMWDYVLTPQDILFVYRDSPVNPNILNWQALNYEINGYVVIRPRVWD
- MPO level in BALFs [2]: normalized
- TNF-α level in BALFs [2]: normalized
- neutrophil number in BALFs [2]: normalized
